Assays:
SGLT-1 = biological target: T1, SGLT-1 (Homo sapiens, UniProt P13866); experiment: SGLT-1 activity measurement ([14C]-AMG uptake in CHO cells expressing human SGLT1); type: cell-based; settings: CHO cells expressing human SGLT1, 0.5 μm [14C]-AMG, 37° C. for 1 hour
T1 construct: expressed in transfected cells
T1 sequence (P13866 1-664): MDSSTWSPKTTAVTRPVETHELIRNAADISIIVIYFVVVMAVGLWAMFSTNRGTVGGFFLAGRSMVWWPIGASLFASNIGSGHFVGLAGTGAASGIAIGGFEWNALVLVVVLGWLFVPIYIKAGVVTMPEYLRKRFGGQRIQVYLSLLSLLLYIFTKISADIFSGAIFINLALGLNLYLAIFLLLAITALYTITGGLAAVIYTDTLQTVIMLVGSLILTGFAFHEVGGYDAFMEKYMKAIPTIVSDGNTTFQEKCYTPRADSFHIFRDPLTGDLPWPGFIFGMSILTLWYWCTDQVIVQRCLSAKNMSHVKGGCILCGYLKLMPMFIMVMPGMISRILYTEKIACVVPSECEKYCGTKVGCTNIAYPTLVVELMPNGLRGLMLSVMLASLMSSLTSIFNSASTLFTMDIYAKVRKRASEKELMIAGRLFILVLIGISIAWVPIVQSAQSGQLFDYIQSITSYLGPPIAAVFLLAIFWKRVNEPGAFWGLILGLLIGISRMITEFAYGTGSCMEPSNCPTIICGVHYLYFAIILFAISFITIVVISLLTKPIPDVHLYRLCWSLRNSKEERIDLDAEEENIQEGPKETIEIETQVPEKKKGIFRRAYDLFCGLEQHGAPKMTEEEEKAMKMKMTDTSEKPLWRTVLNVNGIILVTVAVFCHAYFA
Excerpt: (§1) The following methods can be used to determine the inhibitory activity of the compounds described in the invention for SGLT-1 and SGLT-2.
(§2) ^14C-AMG solution was purchased from PerkinElmer, Cat. No. NEZ080001MC.
(§3) α-Methylglucoside was purchased from Sigma, Cat. No. M9376-100G.
(§4) N-methyl-D-glucosamine was purchased from Sigma, Cat. No. M2004-100G.
(§5) Phloridzin was purchased from Sigma, Cat. No. P3449-1G.
(§6) 96-Well plate was purchased from Corning, Cat. No. 3903.
(§7) Mock-transfected FIP-in CHO cells (3×10^4 cells) and expressing human SGLT1/SGLT2 CHO cells were seeded into 96-well plates respectively. The cells were incubated for 12 hours. Each well of the 96-well plates was washed with 150 μL of sodium-free buffer once. To each well was added 50 μL of sodium-containing buffer containing test compounds having different concentrations and […] [^14C]-AMG. The incubation mixture was incubated at 37° C. for 1 hour. To each well was added 150 μL of precooled sodium-free buffer to terminate the reaction. The cell pellet was washed with sodium-free buffer three times and the residual liquid in well was removed. To each well was added 20 μL of precooled 100 mM NaOH. The 96-well plates were vibrated at 900 rpm for 5 minutes. Scintillation fluid (80 μL) was added to each well which was then vibrated at 600 rpm for 5 minutes. The amount of ^14C-AMG was quantitatively detected using liquid scintillation.

SGLT-2 = biological target: T2, SGLT-2 (Homo sapiens, UniProt P31639); experiment: SGLT-2 activity measurement ([14C]-AMG uptake in CHO cells expressing human SGLT2); type: cell-based; settings: CHO cells expressing human SGLT2, 0.5 μm [14C]-AMG, 37° C. for 1 hour
T2 construct: expressed in transfected cells
T2 sequence (P31639 1-672): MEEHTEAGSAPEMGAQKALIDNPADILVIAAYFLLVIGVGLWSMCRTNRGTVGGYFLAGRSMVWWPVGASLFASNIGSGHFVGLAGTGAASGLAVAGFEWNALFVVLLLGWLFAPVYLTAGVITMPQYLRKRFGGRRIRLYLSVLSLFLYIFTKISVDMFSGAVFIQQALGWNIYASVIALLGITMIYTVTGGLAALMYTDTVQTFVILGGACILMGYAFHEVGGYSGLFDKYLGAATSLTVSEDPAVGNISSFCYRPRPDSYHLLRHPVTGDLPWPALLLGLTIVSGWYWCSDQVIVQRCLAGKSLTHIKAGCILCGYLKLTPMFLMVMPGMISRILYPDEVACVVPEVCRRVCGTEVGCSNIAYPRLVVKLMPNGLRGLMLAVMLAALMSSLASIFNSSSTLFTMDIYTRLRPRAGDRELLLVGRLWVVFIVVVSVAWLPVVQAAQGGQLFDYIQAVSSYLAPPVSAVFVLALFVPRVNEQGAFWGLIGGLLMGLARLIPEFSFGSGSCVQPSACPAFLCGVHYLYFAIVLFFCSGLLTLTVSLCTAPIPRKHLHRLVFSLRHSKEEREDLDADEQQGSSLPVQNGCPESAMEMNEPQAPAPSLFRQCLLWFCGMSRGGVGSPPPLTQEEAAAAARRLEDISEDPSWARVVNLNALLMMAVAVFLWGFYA
Excerpt: as §1, §2, §3, §4, §5, §6, §7

Compound	IC50 (SGLT-1) [nM]	IC50 (SGLT-2) [nM]
CC(C)(O)[C@@]12CO[C@@](c3ccc(Cl)c(Cc4ccc(OCC(F)F)cc4)c3)(O1)[C@H](O)[C@@H](O)[C@@H]2O [Example 25, (1S,2S,3S,4R,5S)-5-[4-Chloro-3-[[4-(2,2-difluoroethoxyl)phenyl]methyl]phenyl]-1-(1-hydroxy-1-methyl-ethyl)-6,8-dioxabicyclo[3.2.1]octane-2,3,4-triol]	5560	3.48
CCOc1ccc(Cc2cc([C@]34OC[C@](C(C)OC(=O)OC(C)C)(O3)[C@@H](O)[C@H](O)[C@H]4O)ccc2Cl)cc1 (stereo partly drawn) [Example 13, 1-[(1S,3S,4R,5S)-5-[4-Chloro-3-[(4-ethoxyphenyl)methyl]phenyl]-2,3,4-trihydroxy-6,8-dioxabicyclo[3.2.1]octan-1-yl]ethyl isopropyl carbonate]	3760	44.1
C#CC(O)C12CO[C@@](c3ccc(Cl)c(Cc4ccc(OCC)cc4)c3)(O1)[C@H](O)[C@@H](O)[C@@H]2O (stereo in doubt) [Example 4, (1S,2S,3S,4R,5S)-5-[4-Chloro-3 [(4-ethoxyphenyl)methyl]phenyl]-1-(1-hydroxyprop-2-yn-1-yl)-6,8-dioxabicyclo[3.2.1]octane-2,3,4-triol]	4210	9.39
CC(C)(O)[C@@]12CO[C@@](c3ccc(Cl)c(Cc4ccc(OC(F)(F)F)cc4)c3)(O1)[C@H](O)[C@@H](O)[C@@H]2O [Example 16, (1S,2S,3S,4R,5S)-5-[4-chloro-3-[[4-(trifluoromethoxy)phenyl]methyl]phenyl]-1-(1-hydroxy-1-methyl-ethyl)-6,8-dioxabicyclo[3.2.1]octane-2,3,4-triol]	1310	2.95

Now those with a lower IC50 (SGLT-1), led by results:

IC50 (SGLT-1) [nM]	IC50 (SGLT-2) [nM]	Compound
260	1.65	CCOc1ccc(Cc2cc([C@]34OC[C@](C(C)O)(O3)[C@@H](O)[C@H](O)[C@H]4O)ccc2Cl)cc1 (stereo partly drawn) [Example 1, (1R,2S,3S,4R,5S)-5-[4-Chloro-3-[(4-ethoxyphenyl)methyl]phenyl]-1-(1-hydroxyethyl)-6,8-dioxabicyclo[3.2.1]octane-2,3,4-triol]
560	2.28	CCOc1ccc(Cc2cc([C@]34OC[C@](C(C)O)(O3)[C@@H](O)[C@H](O)[C@H]4O)ccc2Cl)c(F)c1F (stereo partly drawn) [Example 23, (1R,2S,3S,4R,5S)-5-[4-Chloro-3-[(4-ethoxy-2,3-difluoro-phenyl)methyl]phenyl]-1-(1-hydroxyethyl)-6,8-dioxabicyclo[3.2.1]octane-2,3,4-triol]
180	1.27	CCOc1ccc(Cc2cc([C@]34OC[C@](C(C)O)(O3)[C@@H](O)[C@H](O)[C@H]4O)ccc2Cl)cc1F (stereo partly drawn) [Example 19, (1R,2S,3S,4R,5S)-5-[4-chloro-3-[(4-ethoxy-3-fluoro-phenyl)methyl]phenyl]-1-(1-hydroxyethyl)-6,8-dioxabicyclo[3.2.1]octane-2,3,4-triol]
1040	1.84	COc1ccc(Cc2cc([C@]34OC[C@](C(C)(C)O)(O3)[C@@H](O)[C@H](O)[C@H]4O)ccc2Cl)c(F)c1F [Example 22, (1S,2S,3S,4R,5S)-5-[4-Chloro-3-[(2,3-difluoro-4-methoxy-phenyl)methyl]phenyl]-1-(1-hydroxy-1-methyl-ethyl)-6,8-dioxabicyclo[3.2.1]octane-2,3,4-triol]
110	1.14	CCOc1ccc(Cc2cc([C@]34OC[C@](C(C)(C)O)(O3)[C@@H](O)[C@H](O)[C@H]4O)ccc2Cl)cc1 [Example 2, (1S,2S,3S,4R,5S)-5-[4-Chloro-3-[(4-ethoxyphenyl)methyl]phenyl]-1-(2-hydroxypropan-2-yl)-6,8-dioxabicyclo[3.2.1]octane-2,3,4-triol]

Reference: patent US9394329B2, “Glucopyranosyl derivatives and their uses in medicine” (Sunshine Lake Pharma Co., Ltd., priority 2013, dated 2016)
